In patent US20100267561A1, “HERBICIDAL PYRIDAZINONE DERIVATIVES” (priority 2007, published 2010):

Key:
Assay in all cases: Test B pre-/postemergence plant response
Format in all cases: in vivo
[1] = system: kochia (Kochia scoparia); details: for Kochia plant response rating: 8 g ai/ha
How it was run: (§1)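 Seeds were sown and sprayed preemergence, while plants at 2 to 18 cm (1- to 4-leaf stage) got postemergence sprays. Compounds were formulated in a non-phytotoxic solvent mixture with surfactant. After 13 to 15 days in a greenhouse, injury was rated visually against untreated controls, 0 (no effect) to 100 (complete control).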

[2] = system: downy bromegrass (Bromus tectorum); details: for Bromegrass, Downy plant response rating: 8 g ai/ha
How it was run: as §1

[3] = system: surinam grass (Brachiaria decumbens); details: for Surinam Grass plant response rating: 8 g ai/ha
How it was run: as §1

[4] = system: catchweed bedstraw (Galium aparine); details: Preemergence; for Galium plant response rating: 8 g ai/ha
How it was run: as §1

[5] = system: pigweed (Amaranthus retroflexus); details: for Pigweed plant response rating: 8 g ai/ha
How it was run: as §1

[6] = system: eastern black (E.B.) nightshade (Solanum ptycanthum); details: Preemergence; for Nightshade, E. B. plant response rating: 8 g ai/ha
How it was run: as §1

[7] = system: common (oilseed) sunflower (Helianthus annuus); details: Preemergence; for Sunflower plant response rating: 8 g ai/ha
How it was run: as §1

[8] = system: blackgrass (Alopecurus myosuroides); details: for Blackgrass plant response rating: 8 g ai/ha
How it was run: as §1

[9] = system: johnsongrass (Sorghum halepense); details: for Johnsongrass plant response rating: 8 g ai/ha
How it was run: as §1

[10] = system: woolly cupgrass (Eriochloa villosa); details: for Cupgrass, Woolly plant response rating: 8 g ai/ha
How it was run: as §1

[11] = system: green foxtail (Setaria viridis); details: for Foxtail, Green plant response rating: 8 g ai/ha
How it was run: as §1

[12] = system: corn (Zea mays); details: for Corn plant response rating: 8 g ai/ha
How it was run: as §1

[13] = system: giant foxtail (Setaria faberii); details: for Foxtail, Giant plant response rating: 8 g ai/ha
How it was run: as §1

[14] = system: morningglory (Ipomoea coccinea); details: for Morningglory plant response rating: 8 g ai/ha
How it was run: as §1

[15] = Postemergence, 16 g ai/ha, scale 0 to 100
[16] = Postemergence, 31 g ai/ha, scale 0 to 100, 0 no effect, 100 complete control
[17] = Postemergence, 62 g ai/ha, scale 0 to 100, 0 no effect, 100 complete control
[18] = Preemergence, 16 g ai/ha, scale 0 to 100 (0 no effect, 100 complete control)
[19] = Preemergence, 31 g ai/ha, 0 to 100 scale, 0 no effect, 100 complete control
[20] = Preemergence, 62 g ai/ha, scale 0 to 100
[21] = 16 g ai/ha, scale 0 to 100 (0 no effect, 100 complete control)
[22] = 31 g ai/ha, 0 to 100 scale, 0 no effect, 100 complete control

Cc1cc(-c2ccc(Cl)cc2)nn1-c1c(OS(=O)(=O)c2ccccc2)cnn(C)c1=O [Compound 35]
Kochia plant response rating ([1]; postemergence, 0-100 scale): 0
Plant response rating, Kochia [1, 15]: 0
Plant response rating, Kochia [1, 16]: 0
Plant response rating, Kochia [1, 17]: 0
Plant response rating, Kochia [1, 18]: 0
Plant response rating, Kochia [1, 19]: 0
Kochia plant response rating ([1]; Preemergence, scale 0 to 100): 0
Bromegrass, Downy plant response rating ([2]; postemergence, 0-100 scale): 0
Plant response rating, Bromegrass, Downy [2, 15]: 20
Plant response rating, Bromegrass, Downy [2, 16]: 20
Plant response rating, Bromegrass, Downy [2, 17]: 60
Plant response rating, Bromegrass, Downy [2, 18]: 40
Plant response rating, Bromegrass, Downy [2, 19]: 40
Plant response rating, Bromegrass, Downy [2, 20]: 60
Bromegrass, Downy plant response rating ([2]; Preemergence, scale 0 to 100): 40
Surinam Grass plant response rating ([3]; postemergence, 0-100 scale): 70
Plant response rating, Surinam Grass [3, 15]: 95
Plant response rating, Surinam Grass [3, 17]: 100
Plant response rating, Surinam Grass [3, 18]: 90
Plant response rating, Surinam Grass [3, 19]: 100
Plant response rating, Surinam Grass [3, 20]: 100
Surinam Grass plant response rating ([3]; Preemergence, scale 0 to 100): 45
Plant response rating, Galium [4, 21]: 0
Plant response rating, Galium [4, 22]: 0
Plant response rating, Galium ([4]; 62 g ai/ha, scale 0 to 100): 20
Galium plant response rating ([4]; scale 0 to 100): 0
Pigweed plant response rating ([5]; postemergence, 0-100 scale): 0
Plant response rating, Pigweed [5, 15]: 0
Plant response rating, Pigweed [5, 16]: 0
Plant response rating, Pigweed [5, 17]: 0
Plant response rating, Pigweed [5, 18]: 0
Plant response rating, Pigweed [5, 19]: 0
Plant response rating, Pigweed [5, 20]: 0
Pigweed plant response rating ([5]; Preemergence, scale 0 to 100): 0
Plant response rating, Nightshade, E. B. [6, 21]: 0
Plant response rating, Nightshade, E. B. [6, 22]: 0
Plant response rating, Nightshade, E. B. ([6]; 62 g ai/ha, scale 0 to 100): 0
Nightshade, E. B. plant response rating ([6]; scale 0 to 100): 0
Plant response rating, Sunflower [7, 21]: 0
Plant response rating, Sunflower [7, 22]: 0
Plant response rating, Sunflower ([7]; 62 g ai/ha, scale 0 to 100): 0
Sunflower plant response rating ([7]; scale 0 to 100): 0
Blackgrass plant response rating ([8]; postemergence, 0-100 scale): 0
Plant response rating, Blackgrass [8, 15]: 60
Plant response rating, Blackgrass [8, 16]: 70
Plant response rating, Blackgrass [8, 17]: 90
Plant response rating, Blackgrass [8, 18]: 85
Plant response rating, Blackgrass [8, 19]: 100
Plant response rating, Blackgrass [8, 20]: 100
Blackgrass plant response rating ([8]; Preemergence, scale 0 to 100): 0
Johnsongrass plant response rating ([9]; postemergence, 0-100 scale): 0
Plant response rating, Johnsongrass [9, 15]: 60
Plant response rating, Johnsongrass [9, 16]: 95
Plant response rating, Johnsongrass [9, 17]: 95
Plant response rating, Johnsongrass [9, 18]: 80
Plant response rating, Johnsongrass [9, 19]: 80
Plant response rating, Johnsongrass [9, 20]: 80
Johnsongrass plant response rating ([9]; Preemergence, scale 0 to 100): 45
Cupgrass, Woolly plant response rating ([10]; postemergence, 0-100 scale): 80
Plant response rating, Cupgrass, Woolly [10, 15]: 95
Plant response rating, Cupgrass, Woolly [10, 16]: 100
Plant response rating, Cupgrass, Woolly [10, 17]: 100
Plant response rating, Cupgrass, Woolly [10, 18]: 35
Plant response rating, Cupgrass, Woolly [10, 19]: 100
Plant response rating, Cupgrass, Woolly [10, 20]: 100
Cupgrass, Woolly plant response rating ([10]; Preemergence, scale 0 to 100): 35
Foxtail, Green plant response rating ([11]; postemergence, 0-100 scale): 0
Plant response rating, Foxtail, Green [11, 15]: 75
Plant response rating, Foxtail, Green [11, 16]: 95
Plant response rating, Foxtail, Green [11, 17]: 95
Plant response rating, Foxtail, Green [11, 18]: 100
Plant response rating, Foxtail, Green [11, 19]: 100
Plant response rating, Foxtail, Green [11, 20]: 100
Foxtail, Green plant response rating ([11]; Preemergence, scale 0 to 100): 30
Corn plant response rating ([12]; postemergence, 0-100 scale): 40
Plant response rating, Corn [12, 15]: 90
Plant response rating, Corn [12, 16]: 100
Plant response rating, Corn [12, 17]: 100
Plant response rating, Corn [12, 18]: 40
Plant response rating, Corn [12, 19]: 55
Plant response rating, Corn [12, 20]: 90
Corn plant response rating ([12]; Preemergence, scale 0 to 100): 5
Foxtail, Giant plant response rating ([13]; postemergence, 0-100 scale): 90
Plant response rating, Foxtail, Giant [13, 15]: 98
Plant response rating, Foxtail, Giant [13, 16]: 100
Plant response rating, Foxtail, Giant [13, 17]: 100
Plant response rating, Foxtail, Giant [13, 18]: 100
Plant response rating, Foxtail, Giant [13, 19]: 100
Plant response rating, Foxtail, Giant [13, 20]: 100
Foxtail, Giant plant response rating ([13]; Preemergence, scale 0 to 100): 100
Morningglory plant response rating ([14]; postemergence, 0-100 scale): 0
Plant response rating, Morningglory [14, 15]: 0
Plant response rating, Morningglory [14, 16]: 0
Plant response rating, Morningglory [14, 17]: 0
Plant response rating, Morningglory [14, 18]: 0
Plant response rating, Morningglory [14, 19]: 0
Plant response rating, Morningglory [14, 20]: 10
Morningglory plant response rating ([14]; Preemergence, scale 0 to 100): 0

Cc1cc(-c2ccc(Cl)cc2)nn1-c1c(OC(=O)CC(C)C)cnn(C)c1=O [Compound 37]
Kochia plant response rating ([1]; postemergence, 0-100 scale): 0
Plant response rating, Kochia [1, 15]: 0
Plant response rating, Kochia [1, 16]: 0
Plant response rating, Kochia [1, 17]: 0
Plant response rating, Kochia [1, 18]: 0
Plant response rating, Kochia [1, 19]: 0
Plant response rating, Kochia [1, 20]: 0
Kochia plant response rating ([1]; Preemergence, scale 0 to 100): 0
Bromegrass, Downy plant response rating ([2]; postemergence, 0-100 scale): 0
Plant response rating, Bromegrass, Downy [2, 15]: 55
Plant response rating, Bromegrass, Downy [2, 16]: 55
Plant response rating, Bromegrass, Downy [2, 17]: 75
Plant response rating, Bromegrass, Downy [2, 18]: 30
Plant response rating, Bromegrass, Downy [2, 19]: 60
Plant response rating, Bromegrass, Downy [2, 20]: 80
Bromegrass, Downy plant response rating ([2]; Preemergence, scale 0 to 100): 0
Surinam Grass plant response rating ([3]; postemergence, 0-100 scale): 95
Plant response rating, Surinam Grass [3, 15]: 100
Plant response rating, Surinam Grass [3, 17]: 100
Plant response rating, Surinam Grass [3, 18]: 85
Plant response rating, Surinam Grass [3, 19]: 98
Plant response rating, Surinam Grass [3, 20]: 100
Surinam Grass plant response rating ([3]; Preemergence, scale 0 to 100): 65
Plant response rating, Galium [4, 21]: 0
Plant response rating, Galium [4, 22]: 0
Plant response rating, Galium ([4]; 62 g ai/ha, scale 0 to 100): 0
Galium plant response rating ([4]; scale 0 to 100): 0
Pigweed plant response rating ([5]; postemergence, 0-100 scale): 0
Plant response rating, Pigweed [5, 15]: 0
Plant response rating, Pigweed [5, 16]: 0
Plant response rating, Pigweed [5, 17]: 0
Plant response rating, Pigweed [5, 18]: 0
Plant response rating, Pigweed [5, 19]: 0
Plant response rating, Pigweed [5, 20]: 0
Pigweed plant response rating ([5]; Preemergence, scale 0 to 100): 0
Plant response rating, Nightshade, E. B. [6, 21]: 0
Plant response rating, Nightshade, E. B. [6, 22]: 0
Plant response rating, Nightshade, E. B. ([6]; 62 g ai/ha, scale 0 to 100): 0
Nightshade, E. B. plant response rating ([6]; scale 0 to 100): 0
Plant response rating, Sunflower [7, 21]: 0
Plant response rating, Sunflower [7, 22]: 0
Plant response rating, Sunflower ([7]; 62 g ai/ha, scale 0 to 100): 30
Sunflower plant response rating ([7]; scale 0 to 100): 0
Blackgrass plant response rating ([8]; postemergence, 0-100 scale): 10
Plant response rating, Blackgrass [8, 15]: 75
Plant response rating, Blackgrass [8, 16]: 90
Plant response rating, Blackgrass [8, 17]: 90
Plant response rating, Blackgrass [8, 18]: 100
Plant response rating, Blackgrass [8, 19]: 100
Plant response rating, Blackgrass [8, 20]: 100
Blackgrass plant response rating ([8]; Preemergence, scale 0 to 100): 95
Johnsongrass plant response rating ([9]; postemergence, 0-100 scale): 0
Plant response rating, Johnsongrass [9, 15]: 55
Plant response rating, Johnsongrass [9, 16]: 95
Plant response rating, Johnsongrass [9, 17]: 100
Plant response rating, Johnsongrass [9, 18]: 50
Plant response rating, Johnsongrass [9, 19]: 80
Plant response rating, Johnsongrass [9, 20]: 80
Johnsongrass plant response rating ([9]; Preemergence, scale 0 to 100): 50
Cupgrass, Woolly plant response rating ([10]; postemergence, 0-100 scale): 90
Plant response rating, Cupgrass, Woolly [10, 15]: 98
Plant response rating, Cupgrass, Woolly [10, 16]: 100
Plant response rating, Cupgrass, Woolly [10, 17]: 100
Plant response rating, Cupgrass, Woolly [10, 18]: 50
Plant response rating, Cupgrass, Woolly [10, 19]: 50
Plant response rating, Cupgrass, Woolly [10, 20]: 100
Cupgrass, Woolly plant response rating ([10]; Preemergence, scale 0 to 100): 50
Foxtail, Green plant response rating ([11]; postemergence, 0-100 scale): 60
Plant response rating, Foxtail, Green [11, 15]: 75
Plant response rating, Foxtail, Green [11, 16]: 80
Plant response rating, Foxtail, Green [11, 17]: 85
Plant response rating, Foxtail, Green [11, 18]: 98
Plant response rating, Foxtail, Green [11, 19]: 100
Plant response rating, Foxtail, Green [11, 20]: 100
Foxtail, Green plant response rating ([11]; Preemergence, scale 0 to 100): 40
Corn plant response rating ([12]; postemergence, 0-100 scale): 45
Plant response rating, Corn [12, 15]: 95
Plant response rating, Corn [12, 16]: 100
Plant response rating, Corn [12, 17]: 100
Plant response rating, Corn [12, 18]: 40
Plant response rating, Corn [12, 19]: 95
Plant response rating, Corn [12, 20]: 98
Corn plant response rating ([12]; Preemergence, scale 0 to 100): 40
Foxtail, Giant plant response rating ([13]; postemergence, 0-100 scale): 30
Plant response rating, Foxtail, Giant [13, 15]: 70
Plant response rating, Foxtail, Giant [13, 16]: 85
Plant response rating, Foxtail, Giant [13, 17]: 100
Plant response rating, Foxtail, Giant [13, 18]: 100
Plant response rating, Foxtail, Giant [13, 19]: 100
Plant response rating, Foxtail, Giant [13, 20]: 100
Foxtail, Giant plant response rating ([13]; Preemergence, scale 0 to 100): 100
Morningglory plant response rating ([14]; postemergence, 0-100 scale): 0
Plant response rating, Morningglory [14, 15]: 0
Plant response rating, Morningglory [14, 16]: 0
Plant response rating, Morningglory [14, 17]: 0
Plant response rating, Morningglory [14, 18]: 0
Plant response rating, Morningglory [14, 19]: 0
Plant response rating, Morningglory [14, 20]: 0
Morningglory plant response rating ([14]; Preemergence, scale 0 to 100): 0
